Calls of active or inactive are those of the source. No cut-off for these calls is given here.
Columns and labels:
D(2) dopamine receptor [1] = target: T1, D(2) dopamine receptor (Homo sapiens, UniProt P14416); assay: Displacement of [3H]-N-methylspiperone from human dopamine D2 receptor expressed in HEK293 cell membranes incubated for 60 mins by microbeta scintillation counting analysis; set-up: species or system Membrane
D(4) dopamine receptor = target: T2, D(4) dopamine receptor (Homo sapiens, UniProt P21917); assay: Displacement of [3H]-N-methylspiperone from human dopamine D4 receptor expressed in HEK293 cell membranes incubated for 60 mins by microbeta scintillation counting analysis; set-up: species or system Membrane
T2 sequence (P21917 whole entry): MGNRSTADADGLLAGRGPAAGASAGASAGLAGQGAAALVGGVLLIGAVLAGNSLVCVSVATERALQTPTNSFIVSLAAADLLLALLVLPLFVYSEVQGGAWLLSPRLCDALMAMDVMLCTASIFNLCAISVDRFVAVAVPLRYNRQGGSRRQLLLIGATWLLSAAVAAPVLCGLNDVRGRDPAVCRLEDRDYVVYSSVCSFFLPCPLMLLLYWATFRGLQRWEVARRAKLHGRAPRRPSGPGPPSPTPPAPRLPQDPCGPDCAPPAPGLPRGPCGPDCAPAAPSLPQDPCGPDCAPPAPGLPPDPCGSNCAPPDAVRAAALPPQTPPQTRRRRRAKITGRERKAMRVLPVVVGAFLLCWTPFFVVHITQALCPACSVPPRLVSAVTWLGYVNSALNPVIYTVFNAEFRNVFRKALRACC

D(2) dopamine receptor [2] = target: T1, D(2) dopamine receptor; assay: Displacement of [3H]-(R)-(+)7-OH-DPAT from human dopamine D2 receptor expressed in HEK293 cell membranes incubated for 90 mins by microbeta scintillation counting analysis; set-up: species or system Membrane
D(3) dopamine receptor [3] = target: T3, D(3) dopamine receptor (Homo sapiens, UniProt P35462); assay: Displacement of [3H]-N-methylspiperone from human dopamine D3 receptor expressed in HEK293 cell membranes incubated for 60 mins by microbeta scintillation counting analysis; set-up: species or system Membrane
T3 sequence (P35462 whole entry): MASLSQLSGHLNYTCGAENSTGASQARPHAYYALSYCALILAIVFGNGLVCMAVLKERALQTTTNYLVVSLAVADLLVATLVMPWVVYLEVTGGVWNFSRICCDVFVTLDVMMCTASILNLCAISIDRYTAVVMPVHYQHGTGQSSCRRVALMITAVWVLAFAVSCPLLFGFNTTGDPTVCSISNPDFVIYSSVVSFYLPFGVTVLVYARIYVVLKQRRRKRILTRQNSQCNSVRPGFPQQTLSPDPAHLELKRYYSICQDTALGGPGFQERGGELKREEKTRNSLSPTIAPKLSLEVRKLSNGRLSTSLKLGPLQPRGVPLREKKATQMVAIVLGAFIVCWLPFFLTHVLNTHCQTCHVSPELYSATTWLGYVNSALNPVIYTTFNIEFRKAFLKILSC

D(3) dopamine receptor [4] = target: T3, D(3) dopamine receptor; assay: Agonist activity at human dopamine D3 receptor expressed in HEK293T cells assessed as GalphaoA activation preincubated for 5 mins with coelenterazine followed by compound addition and measured after 10 mins by BRET assay; type: functional, cell-based
[5] = target: Mu-type opioid receptor (Homo sapiens) (UniProt P35372); conditions: HEK293T, time 10.0 min
Mu-type opioid receptor (Homo sapiens), sequence (P35372 whole entry): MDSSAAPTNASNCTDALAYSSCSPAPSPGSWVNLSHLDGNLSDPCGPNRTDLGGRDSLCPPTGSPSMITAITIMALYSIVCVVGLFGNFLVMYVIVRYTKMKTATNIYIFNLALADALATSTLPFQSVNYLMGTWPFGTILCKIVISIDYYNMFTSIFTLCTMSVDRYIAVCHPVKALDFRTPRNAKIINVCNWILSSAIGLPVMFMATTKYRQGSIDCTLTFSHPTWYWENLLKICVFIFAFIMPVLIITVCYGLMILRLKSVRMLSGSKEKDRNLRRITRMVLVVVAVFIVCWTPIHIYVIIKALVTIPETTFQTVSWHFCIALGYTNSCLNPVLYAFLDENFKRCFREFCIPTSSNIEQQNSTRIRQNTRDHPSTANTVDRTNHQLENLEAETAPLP

[6] = target: Mu-type opioid receptor (Homo sapiens) (UniProt P35372); conditions: HEK293T, time 10.0 min; remark: listed apart in the source
[7] = target: Mu-type opioid receptor (Homo sapiens) (UniProt P35372); conditions: HEK293T, time 10.0 min; remark: listed apart in the source
D(3) dopamine receptor [8] = target: T3, D(3) dopamine receptor; assay: Displacement of [3H]-(R)-(+)7-OH-DPAT from human dopamine D3 receptor expressed in HEK293 cell membranes incubated for 90 mins by microbeta scintillation counting analysis; set-up: species or system Membrane

T1 sequence (P14416 whole entry): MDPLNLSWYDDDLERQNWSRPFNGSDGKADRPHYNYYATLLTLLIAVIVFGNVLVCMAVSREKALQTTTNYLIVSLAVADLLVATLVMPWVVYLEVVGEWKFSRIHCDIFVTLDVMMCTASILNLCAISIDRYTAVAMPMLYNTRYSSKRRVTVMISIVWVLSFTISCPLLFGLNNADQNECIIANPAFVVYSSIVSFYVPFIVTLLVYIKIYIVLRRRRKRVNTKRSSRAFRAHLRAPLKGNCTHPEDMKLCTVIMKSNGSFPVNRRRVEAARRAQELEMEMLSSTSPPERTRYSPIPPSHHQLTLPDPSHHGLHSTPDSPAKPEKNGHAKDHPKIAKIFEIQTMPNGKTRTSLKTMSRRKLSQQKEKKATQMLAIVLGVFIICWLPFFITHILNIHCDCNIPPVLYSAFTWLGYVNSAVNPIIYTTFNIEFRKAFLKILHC

CCc1cc(Cl)c(OC)c(C(=O)NCC2CCCN2CCCCNCCC(C(=O)N(C)C)(c2ccccc2)c2ccccc2)c1O (configuration not stated)
Ki (D(2) dopamine receptor [1]): 0.502 µM
Ki (D(4) dopamine receptor): 3.42 µM
Ki (D(2) dopamine receptor [2]): 0.0937 µM

CN(C)C(=O)C(CCNCCCCN1CCc2ccc(C#N)cc2C1)(c1ccccc1)c1ccccc1
Ki (D(2) dopamine receptor [1]): 1.24 µM
Ki (D(3) dopamine receptor [3]): 1.06 µM
Ki (D(4) dopamine receptor): 58.9 µM

N#CC(CCNCCC(O)CN1CCN(c2cccc(Cl)c2Cl)CC1)(c1ccccc1)c1ccccc1 (configuration not stated)
Ki (D(2) dopamine receptor [1]): 0.903 µM
Ki (D(3) dopamine receptor [3]): 0.46 µM
Ki (D(4) dopamine receptor): 0.426 µM

CN(C)C(=O)C(CCN1CCc2ccc(C#N)cc2C1)(c1ccccc1)c1ccccc1
Ki (D(2) dopamine receptor [1]): 2.27 µM
Ki (D(3) dopamine receptor [3]): 1.63 µM
Ki (D(4) dopamine receptor): 18 µM

O=C(NCCCCN1CC[C@]2(c3cccc(O)c3)CCC[C@H]1[C@@H]2O)c1cc2ccccc2[nH]1
Ki (D(2) dopamine receptor [1]): 4.53 µM
Ki (D(3) dopamine receptor [3]): 5.63 µM
Ki (D(4) dopamine receptor): 5.63 µM

CCOC(=O)/C=C1\[C@@H]2CCC[C@@]1(c1cccc(O)c1)CCN2C[C@H]1C[C@@H]1CCNC(=O)c1cc2ccccc2[nH]1 (relative stereo)
Ki (D(2) dopamine receptor [1]): 2.86 µM
Ki (D(3) dopamine receptor [3]): 1.29 µM
Ki (D(4) dopamine receptor): 29.2 µM
EC50 (D(3) dopamine receptor [4]): 1.48 µM
pEC50 [5]: inactive
pEC50 [6]: inactive
pEC50 [7]: inactive

CCc1cccc(N2CCN(CC(O)CCNCCC(C(=O)N(C)C)(c3ccccc3)c3ccccc3)CC2)c1Cl (configuration not stated)
Ki (D(2) dopamine receptor [1]): 0.457 µM
Ki (D(3) dopamine receptor [3]): 0.123 µM
Ki (D(4) dopamine receptor): 1.26 µM
Ki (D(2) dopamine receptor [2]): 0.114 µM
Ki (D(3) dopamine receptor [8]): 0.123 µM

CCc1cc(Cl)c(OC)c(C(=O)NC[C@@H]2CCCN2CCCCNCCC(C(=O)N(C)C)(c2ccccc2)c2ccccc2)c1O
Ki (D(2) dopamine receptor [1]): 1.73 µM
Ki (D(4) dopamine receptor): 6.61 µM

CCC(=O)C(CCN(C)C)(c1ccccc1)c1ccccc1 [NORMETHADONE]
Ki (D(2) dopamine receptor [1]): 34.9 µM
Ki (D(3) dopamine receptor [3]): 4.27 µM
Ki (D(4) dopamine receptor): > 100 µM

CCc1cc(Cl)c(OC)c(C(=O)NC[C@@H]2CCCN2CCC(C#N)(c2ccccc2)c2ccccc2)c1O
Ki (D(2) dopamine receptor [1]): 12.4 µM
Ki (D(3) dopamine receptor [3]): 1.55 µM
Ki (D(4) dopamine receptor): > 100 µM

N#CC(CCN1CCN(c2cccc(Cl)c2Cl)CC1)(c1ccccc1)c1ccccc1
Ki (D(2) dopamine receptor [1]): 2.63 µM
Ki (D(3) dopamine receptor [3]): 2.24 µM
Ki (D(4) dopamine receptor): 8.49 µM

CCOC(=O)/C=C1\[C@@H]2CCC[C@@]1(c1cccc(O)c1)CCN2CCc1ccccc1
Ki (D(2) dopamine receptor [1]): 0.636 µM
Ki (D(4) dopamine receptor): 5.47 µM
Ki (D(2) dopamine receptor [2]): 0.186 µM

CN(C)C(=O)C(CCNCCC(O)CN1CCN(c2cccc(Cl)c2Cl)CC1)(c1ccccc1)c1ccccc1 (configuration not stated)
Ki (D(2) dopamine receptor [1]): 0.7 µM
Ki (D(3) dopamine receptor [3]): 0.572 µM
Ki (D(4) dopamine receptor): 2.78 µM
Ki (D(2) dopamine receptor [2]): 0.167 µM
Ki (D(3) dopamine receptor [8]): 0.209 µM

Oc1cccc([C@]23CCC[C@H](NCC2)[C@H]3O)c1
Ki (D(2) dopamine receptor [1]): > 100 µM
Ki (D(3) dopamine receptor [3]): > 100 µM
Ki (D(4) dopamine receptor): > 100 µM
Ki (D(2) dopamine receptor [2]): > 100 µM
Ki (D(3) dopamine receptor [8]): > 100 µM

CN1CCC(c2ccccc2)(c2ccccc2)C1
Ki (D(2) dopamine receptor [1]): > 100 µM
Ki (D(3) dopamine receptor [3]): > 100 µM
Ki (D(4) dopamine receptor): 35.4 µM

Oc1cccc([C@@]23CCC[C@@H]([C@H]2O)N(C/C=C/c2ccccc2)CC3)c1
Ki (D(2) dopamine receptor [1]): 7.38 µM
Ki (D(3) dopamine receptor [3]): 15.7 µM
Ki (D(4) dopamine receptor): 36.9 µM
Ki (D(2) dopamine receptor [2]): 2.79 µM
Ki (D(3) dopamine receptor [8]): 20 µM

N#CC(CCNCCc1ccccc1)(c1ccccc1)c1ccccc1
Ki (D(2) dopamine receptor [1]): 17.6 µM
Ki (D(3) dopamine receptor [3]): 8.96 µM
Ki (D(4) dopamine receptor): 13.9 µM

N#CC(CCNCCCCN1CCN(c2cccc(Cl)c2Cl)CC1)(c1ccccc1)c1ccccc1
Ki (D(2) dopamine receptor [1]): 0.149 µM
Ki (D(4) dopamine receptor): 0.0259 µM
Ki (D(2) dopamine receptor [2]): 0.0363 µM

CN(C)CCC(C(=O)N(C)C)(c1ccccc1)c1ccccc1
Ki (D(2) dopamine receptor [1]): > 100 µM
Ki (D(3) dopamine receptor [3]): 36.9 µM
Ki (D(4) dopamine receptor): 20.2 µM

Oc1cccc(C(CCNCCCCN2CCN(c3ccccc3)CC2)c2cccc(O)c2)c1
Ki (D(2) dopamine receptor [1]): 0.987 µM
Ki (D(3) dopamine receptor [3]): 0.249 µM
Ki (D(4) dopamine receptor): 0.422 µM

CCc1cc(Cl)c(OC)c(C(=O)NC[C@@H]2C[C@@H](OCCCCNCCC(C(=O)N(C)C)(c3ccccc3)c3ccccc3)CN2)c1O
Ki (D(2) dopamine receptor [1]): 0.00941 µM
Ki (D(3) dopamine receptor [3]): 0.00221 µM
Ki (D(4) dopamine receptor): 0.674 µM

COc1cccc(C(=CCNCCCCN2CCN(c3cccc(Cl)c3Cl)CC2)c2cccc(OC)c2)c1
Ki (D(2) dopamine receptor [1]): 5.24 µM
Ki (D(3) dopamine receptor [3]): 0.342 µM
Ki (D(4) dopamine receptor): 26.1 µM

Source: ChEMBL document CHEMBL5046218, “Novel Dual-Target μ-Opioid Receptor and Dopamine D3 Receptor Ligands as Potential Nonaddictive Pharmacotherapeutics for Pain Management” (J Med Chem, 2021)
